Assay results from publication PMC11439681, “The identification of potent dual-target monopolar spindle 1 (MPS1) and histone deacetylase 8 (HDAC8) inhibitors through pharmacophore modeling, molecular docking, molecular dynamics simulations, and biological evaluation” (Frontiers in Pharmacology, 2024).

Legend:
HDAC8 = target: T1, HDAC8 (Homo sapiens, UniProt Q9BY41); experiment: In vitro HDAC8 inhibitory assay; type: biochemical
T1 construct: purchased Abcam
T1 sequence (Q9BY41 1-377): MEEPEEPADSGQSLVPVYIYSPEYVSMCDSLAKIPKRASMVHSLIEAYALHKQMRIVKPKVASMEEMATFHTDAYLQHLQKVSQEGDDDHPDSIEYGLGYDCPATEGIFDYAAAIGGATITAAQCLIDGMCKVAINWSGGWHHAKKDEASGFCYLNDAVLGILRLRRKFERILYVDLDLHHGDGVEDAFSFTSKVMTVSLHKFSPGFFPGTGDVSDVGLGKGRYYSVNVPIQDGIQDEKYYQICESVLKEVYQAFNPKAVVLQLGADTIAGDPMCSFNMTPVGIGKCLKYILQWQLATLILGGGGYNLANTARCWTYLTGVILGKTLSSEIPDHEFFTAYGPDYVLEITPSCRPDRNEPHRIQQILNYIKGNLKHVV
Protocol: Inhibition of HDAC8 was determined in 96-well plates. […] The assessment of fluorescence intensity was executed at 390 nm and 460 nm via a microplate reader.

HepG2 liver cancer cells = experiment: MTT cytotoxicity assay, HepG2; type: cell-based; conditions: Homo sapiens, 72 h cell treatment
Protocol: (§1) The cells (5 × 10^4 cells/well) were incubated overnight in 96-well plates. A series of solutions containing varying concentrations of inhibitors were added and incubated at 37°C for a period of 72 h. Subsequently, the culture medium was removed, followed by a subsequent incubation of the cells with a 5 mg/mL MTT stock solution for 4 h. After centrifugation, the precipitate was solubilized in DMSO and gently shaken for 15 min. Finally, the absorbance measurement at 570 nm was completed using a microplate reader. Data analysis was performed using GraphPad Prism 6.0 software.

BEL7402 = experiment: MTT cytotoxicity assay, BEL7402; type: cell-based; conditions: Homo sapiens, Bel-7402, 72 h cell treatment
Protocol: as §1

Huh-1 = experiment: MTT cytotoxicity assay, Huh-1; type: cell-based; conditions: Homo sapiens, 72 h cell treatment
Protocol: as §1

[1] = tested on: drug-resistant liver cancer cells (R-HepG2); experiment: MTT cytotoxicity assay, R-HepG2; type: cell-based; conditions: Homo sapiens, 72 h cell treatment
Protocol: as §1

HEK293 = experiment: MTT cytotoxicity assay, HEK293 normal cells; type: cell-based; conditions: Homo sapiens, 72 h cell treatment
Protocol: as §1

MCF10A = experiment: MTT cytotoxicity assay, MCF10A normal cells; type: cell-based; conditions: Homo sapiens, MCF-10A, 72 h cell treatment
Protocol: as §1

P-histone H3 = experiment: Gene expression analysis of P-histone H3 in HepG2 cells; type: cell-based, human; conditions: 20 h, 0.25, 1 and 5 μM
Protocol: (§2) Total RNA was extracted after the indicated treatments using the RNeasy Mini Kit (cat. no. 74106; QIAGEN, Hilden, Germany) following the manufacturer’s protocol. The concentration of RNA was measured on a plate reader, and then the extracted RNA was converted to cDNA using a High-Capacity RNA-to-cDNA kit from Applied Biosystems (Thermo Fisher Scientific, Inc.). Quantitative real-time polymerase chain reaction was performed in triplicate in a 96-well optical PCR plate using a QuantStudio Real-Time PCR System. Gene expression levels were evaluated using the comparative CT method. Graphical representations of the data were generated by GraphPad Prism 8.
(§3) Previous studies indicate that MPS1 inhibitor exerts its antitumor effects by downregulating the levels of phosphorylated histone H3 ([Naud et al., 2013]), while HDAC8 inhibitor achieves its antitumor activity by upregulating lysine residue 62 acetylation (Ace-K62) levels of pyruvate kinase M2 (PKM2) ([Zhang et al., 2020]). The gene expression of P-histone H3 and Ace-K62 was detected in HepG2 cells with the treatment of MPH-5 for 20 h (at the concentration of 0, 0.25, 1, and 5 μM, respectively). […] As the concentration of MPH-5 increases, the inhibitory effect on P-histone H3 and the promotional effect on Ace-K62 become more pronounced.

Ace-K62 of PKM2 = experiment: Gene expression analysis of Ace-K62 of PKM2 in HepG2 cells; type: cell-based, human; conditions: 20 h, 0.25, 1 and 5 μM
Protocol: as §2, §3

HepG2 xenograft tumor = experiment: In vivo antitumor assay, HepG2 xenograft model; set-up: species or system BALB/c mice; conditions: i.p., 1, 5 and 10 mg/kg
Protocol: Male BALB/c mice (6 weeks old) were purchased from Changzhou Cavens Experimental Animal Limited Company (Changzhou, China). The xenograft model was established by subcutaneous injection of a suspension of HepG2 human liver cancer cells in PBS (200 μL, 1 × 10^7 cells) into the mice. The mice were randomized into four groups and received intraperitoneal injections of vehicle or MPH-5 at concentrations of 1, 5 and 10 mg/kg. Tumor volume was measured at 3-day intervals and calculated as follows: (c × c × d)/2 (c, the smallest diameter; d, the largest diameter). The experiments involving animals were approved by the Ethics Committee of China Pharmaceutical University.

[2] = In vivo pharmacokinetic study; conditions: mouse, plasma, ip, BALB/c mice, i.p., 5 mg/kg
Protocol: MPH-5 was administered intraperitoneally to BALB/c mice at a dose of 5 mg/kg. The blood samples (0.25 mL) were collected at 0.25, 0.5, 1, 2, 4, 8, 16 and 24 h after dosing and centrifuged to obtain the plasma fraction. Plasma samples (50 μL) were transferred into a 96-well plate, followed by the addition of an internal standard solution of methanol/acetonitrile (1:1, v/v) (200 μL). After vortexing for 5 min, the mixture was centrifuged (12,000 rpm for 5 min) to obtain the supernatant (60 μL). A liquid chromatography-tandem mass spectrometry (LC-MS/MS) system was used for the pharmacokinetic study. Data were processed using Phoenix software.

[3] = tested on: panel of 68 kinases and other histone deacetylases; experiment: In vitro selectivity assay, whole panel; type: biochemical; conditions: read-out: IC50 on these kinases and other histone deacetylases
Protocol: The inhibitory effects of compound MPH-5 on a panel of 68 kinases and other histone deacetylases were evaluated to assess the selectivity profile of MPH-5. This experiment was conducted by ICE Bioscience Inc. (Beijing, China).

With `Cn1cc(-c2cc3cnc(Nc4ccc(-c5cncn5/C=C/C(=O)NO)cc4Cl)cc3n2C(=O)OC(C)(C)C)cn1` [MPH-5] as the molecule, how does the IC50 (HDAC8; 90 min at 37°C) read?
Its IC50 is 6.07 ± 0.37 nM.

And the “HDAC8 IC50 of MPH-5 relative to belinostat” value (HDAC8; vs belinostat)?
Its value is “about 4 fold”.

What about the IC50 (HepG2 liver cancer cells) of the same molecule?
Its IC50 is 0.19 µM.

What about the IC50 (BEL7402) of the same molecule?
Its IC50 is 0.86 µM.

And the IC50 (Huh-1)?
Its IC50 is 0.32 µM.

And the IC50 [1]?
Its IC50 is 0.27 µM.

What about the IC50 (HEK293) of the same molecule?
Its IC50 is greater than 10 µM.

And the IC50 (MCF10A)?
Its IC50 is greater than 10 µM.

What about the “phosphorylated histone H3 levels” value (P-histone H3) of the same molecule?
Its value is “dose-dependent regulation”.

And the “K62 acetylation levels (Ace-K62 of PKM2)” value (Ace-K62 of PKM2)?
The value was “dose-dependent regulation”.

And the body weight change (HepG2 xenograft tumor; HepG2 xenograft mice)?
The body weight change was “did not induce any significant body weight change”.

And the “tumor growth (tumor volume)” value (HepG2 xenograft tumor; HepG2 xenograft, vs vehicle)?
The value was “significantly and dose-dependently inhibited the tumor growth”.

And the AUC ([2]; read-out: AUC (h·nmol/L), area under the drug-time curve)?
The AUC was 13800 nmol·h/L.

What about the Cmax ([2]; read-out: Cmax (nmol/L), maximum plasma concentration) of the same molecule?
The Cmax was 2920 nmol/L.

And the bioavailability ([2]; read-out: F (%), bioavailability)?
Its bioavailability is 85%.

What about the half-life ([2]; read-out: T1/2 (h), elimination half-life (converted)) of the same molecule?
The half-life was 3.46 h.

And the IC50 [3]?
Its IC50 is greater than 10000 nM.
